# Reference: US8901118B2, “Compounds and methods for kinase modulation, and indications therefor” (Plexxikon Inc., priority 2010, dated 2014)
# pIC50: −log10 of the molar value.
# Key:
# [1] = Relative solubility by turbidity in aqueous buffers (pH 1.5, 4.5, 6.8, 7.4); assay type: physicochemical; conditions: for turbidity threshold (L, M, H) 1.4: pH 1.5 (SGF); for turbidity threshold (L, M, H) 4.5: pH 4.5 (SIF); for turbidity threshold (L, M, H) 6.8: pH 6.8 (SIF); for turbidity threshold (L, M, H) 7.4: pH 7.4 (HEPES)
# How it was run: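 Twofold DMSO dilutions of a 25 mM stock were spiked into SGF (0.5M NaCl, pH 1.5), SIF (0.05M NaH2PO4, pH 4.5 and 6.8) or HEPES buffer (10 mM HEPES, 150 mM NaCl, pH 7.4). Absorbance was read at 490, 535 and 650 nm. The endpoint is the concentration crossing O.D. 0.01, averaged across wavelengths.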
# TrkA kinase = TrkA kinase (Homo sapiens, UniProt P04629); assay: TrkA kinase biochemical activity assay (AlphaScreen); conditions: 100 μM ATP; read-out: Biochemical Inhibition IC50 TrkA
# How it was run: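 Recombinant TrkA with 30 nM biotin-(E4Y)10 and 100 μM ATP in 25 mM Hepes pH 7.5, 10 mM MnCl2, 5% DMSO, 40 min at room temperature. Phosphorylation read by AlphaScreen (streptavidin donor, PY20 acceptor beads); IC50 from signal vs compound concentration. TrkC run similarly.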
# Sequence of TrkA kinase (P04629 33-796): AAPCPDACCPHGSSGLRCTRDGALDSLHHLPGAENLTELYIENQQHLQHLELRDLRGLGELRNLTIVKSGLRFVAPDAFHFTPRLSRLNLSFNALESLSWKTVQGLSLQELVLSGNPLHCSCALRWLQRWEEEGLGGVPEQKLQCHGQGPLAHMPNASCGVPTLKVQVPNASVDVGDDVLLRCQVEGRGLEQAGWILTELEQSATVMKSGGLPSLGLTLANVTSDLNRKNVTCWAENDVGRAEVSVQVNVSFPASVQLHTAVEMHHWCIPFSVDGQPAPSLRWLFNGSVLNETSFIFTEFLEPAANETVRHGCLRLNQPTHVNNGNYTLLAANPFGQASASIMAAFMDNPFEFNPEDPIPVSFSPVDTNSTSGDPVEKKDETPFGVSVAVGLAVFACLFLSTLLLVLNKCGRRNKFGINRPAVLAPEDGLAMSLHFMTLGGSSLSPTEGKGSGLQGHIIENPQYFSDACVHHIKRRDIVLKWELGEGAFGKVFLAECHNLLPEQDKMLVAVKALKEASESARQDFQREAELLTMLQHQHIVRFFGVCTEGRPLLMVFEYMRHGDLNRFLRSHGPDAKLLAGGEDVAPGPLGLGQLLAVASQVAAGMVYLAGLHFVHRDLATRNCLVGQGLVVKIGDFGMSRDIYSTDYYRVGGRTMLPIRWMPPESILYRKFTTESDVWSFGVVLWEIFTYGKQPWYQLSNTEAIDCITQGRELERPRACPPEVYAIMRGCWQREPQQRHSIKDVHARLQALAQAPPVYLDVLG
pIC50 (TrkA kinase),SMILES,"turbidity threshold (L, M, H) 1.4 [1]","turbidity threshold (L, M, H) 4.5 [1]","turbidity threshold (L, M, H) 6.8 [1]","turbidity threshold (L, M, H) 7.4 [1]"
> 8.00,"CNc1ncnc2[nH]cc(C(=O)c3ccc(NC4CCC(F)(F)CC4)nc3F)c12 [Compound P-4063, [6-[(4,4-difluorocyclohexyl)amino]-2-fluoro-3-pyridyl]-[4-(methylamino)-7H-pyrrolo[2,3-d]pyrimidin-5-yl]methanone]",M (moderate solubility if the threshold concentration is 31.3 μM to 250 μM),M (moderate solubility if the threshold concentration is 31.3 μM to 250 μM),M (moderate solubility if the threshold concentration is 31.3 μM to 250 μM),M (moderate solubility if the threshold concentration is 31.3 μM to 250 μM)
> 7.00,"COc1cncc(Nc2ccc(C(=O)c3c[nH]c4ncnc(NCC(F)(F)F)c34)c(F)n2)c1 [Compound P-4103, [2-fluoro-6-[(5-methoxy-3-pyridyl)amino]-3-pyridyl]-[4-(2,2,2-trifluoroethylamino)-7H-pyrrolo[2,3-d]pyrimidin-5-yl]methanone]",L (low solubility if the threshold concentration is <31.3 μM),M (moderate solubility if the threshold concentration is 31.3 μM to 250 μM),M (moderate solubility if the threshold concentration is 31.3 μM to 250 μM),M (moderate solubility if the threshold concentration is 31.3 μM to 250 μM)
> 8.00,"CCCNc1ncnc2[nH]cc(C(=O)c3ccc(Nc4ccc(C)nc4)nc3F)c12 [Compound P-4114, [2-fluoro-6-[(6-methyl-3-pyridyl)amino]-3-pyridyl]-[4-(propylamino)-7H-pyrrolo[2,3-d]pyrimidin-5-yl]methanone]",H (high solubility if the threshold concentration is >250 μm),L (low solubility if the threshold concentration is <31.3 μM),L (low solubility if the threshold concentration is <31.3 μM),L (low solubility if the threshold concentration is <31.3 μM)
< 6.00,"Fc1ccccc1Nc1ncc(Cc2c[nH]c3ncc(Cl)cc23)cn1 [Compound P-3014, [5-(5-Chloro-1H-pyrrolo[2,3-b]pyridin-3-ylmethyl)-pyrimidin-2-yl]-(2-fluoro-phenyl)-amine]",H (high solubility if the threshold concentration is >250 μm),M (moderate solubility if the threshold concentration is 31.3 μM to 250 μM),M (moderate solubility if the threshold concentration is 31.3 μM to 250 μM),M (moderate solubility if the threshold concentration is 31.3 μM to 250 μM)
> 8.00,"CNc1ncnc2[nH]cc(C(=O)c3ccc(Nc4ccc(OC)nc4)nc3F)c12 [Compound P-4083, [2-fluoro-6-[(6-methoxy-3-pyridyl)amino]-3-pyridyl]-[4-(methylamino)-7H-pyrrolo[2,3-d]pyrimidin-5-yl]methanone]",M (moderate solubility if the threshold concentration is 31.3 μM to 250 μM),M (moderate solubility if the threshold concentration is 31.3 μM to 250 μM),M (moderate solubility if the threshold concentration is 31.3 μM to 250 μM),H (high solubility if the threshold concentration is >250 μm)
> 7.00,"O=C(c1ccc(NC2CCC(F)(F)CC2)nc1F)c1c[nH]c2ncnc(NCC(F)(F)F)c12 [Compound P-4061, [6-[(4,4-difluorocyclohexyl)amino]-2-fluoro-3-pyridyl]-[4-(2,2,2-trifluoroethylamino)-7H-pyrrolo[2,3-d]pyrimidin-5-yl]methanone]",M (moderate solubility if the threshold concentration is 31.3 μM to 250 μM),L (low solubility if the threshold concentration is <31.3 μM),M (moderate solubility if the threshold concentration is 31.3 μM to 250 μM),M (moderate solubility if the threshold concentration is 31.3 μM to 250 μM)
